Key:
[1] = target: T1, Human recombinant HDAC1 (Homo sapiens, UniProt Q13547); experiment: HDAC enzyme activity test, HDAC1; type: biochemical; settings: Table 12; read-out: Inhibition ability (IC50) HDAC1
T1 construct: purchased Enzo Life Science Co. (named for the kit; assigned to the enzyme from the BML- catalogue prefix) BML-SE456
Method: (§1) Then, 0.3 μg of enzyme and 10 μM of substrate per well were added, reacted at 30° C. for 60 minutes. Thereto, Fluor de Lys® Developer II (BML-KI176) was added and reacted for 30 minutes. […] From the data, the respective IC50 were calculated by GraphPad Prism 4.0 program.

[2] = target: T2, human recombinant HDAC6 (Homo sapiens, UniProt Q9UBN7); experiment: HDAC enzyme activity test, HDAC6; type: biochemical; settings: Table 12; for Selectivity for HDAC6, HD1/HD6: ratio HDAC1 IC50 / HDAC6 IC50; for IC50: read-out: Inhibition ability (IC50) HDAC6
T2 construct: purchased Calibiochem Co. (so in the source) 382180
T2 sequence (Q9UBN7 1-1215): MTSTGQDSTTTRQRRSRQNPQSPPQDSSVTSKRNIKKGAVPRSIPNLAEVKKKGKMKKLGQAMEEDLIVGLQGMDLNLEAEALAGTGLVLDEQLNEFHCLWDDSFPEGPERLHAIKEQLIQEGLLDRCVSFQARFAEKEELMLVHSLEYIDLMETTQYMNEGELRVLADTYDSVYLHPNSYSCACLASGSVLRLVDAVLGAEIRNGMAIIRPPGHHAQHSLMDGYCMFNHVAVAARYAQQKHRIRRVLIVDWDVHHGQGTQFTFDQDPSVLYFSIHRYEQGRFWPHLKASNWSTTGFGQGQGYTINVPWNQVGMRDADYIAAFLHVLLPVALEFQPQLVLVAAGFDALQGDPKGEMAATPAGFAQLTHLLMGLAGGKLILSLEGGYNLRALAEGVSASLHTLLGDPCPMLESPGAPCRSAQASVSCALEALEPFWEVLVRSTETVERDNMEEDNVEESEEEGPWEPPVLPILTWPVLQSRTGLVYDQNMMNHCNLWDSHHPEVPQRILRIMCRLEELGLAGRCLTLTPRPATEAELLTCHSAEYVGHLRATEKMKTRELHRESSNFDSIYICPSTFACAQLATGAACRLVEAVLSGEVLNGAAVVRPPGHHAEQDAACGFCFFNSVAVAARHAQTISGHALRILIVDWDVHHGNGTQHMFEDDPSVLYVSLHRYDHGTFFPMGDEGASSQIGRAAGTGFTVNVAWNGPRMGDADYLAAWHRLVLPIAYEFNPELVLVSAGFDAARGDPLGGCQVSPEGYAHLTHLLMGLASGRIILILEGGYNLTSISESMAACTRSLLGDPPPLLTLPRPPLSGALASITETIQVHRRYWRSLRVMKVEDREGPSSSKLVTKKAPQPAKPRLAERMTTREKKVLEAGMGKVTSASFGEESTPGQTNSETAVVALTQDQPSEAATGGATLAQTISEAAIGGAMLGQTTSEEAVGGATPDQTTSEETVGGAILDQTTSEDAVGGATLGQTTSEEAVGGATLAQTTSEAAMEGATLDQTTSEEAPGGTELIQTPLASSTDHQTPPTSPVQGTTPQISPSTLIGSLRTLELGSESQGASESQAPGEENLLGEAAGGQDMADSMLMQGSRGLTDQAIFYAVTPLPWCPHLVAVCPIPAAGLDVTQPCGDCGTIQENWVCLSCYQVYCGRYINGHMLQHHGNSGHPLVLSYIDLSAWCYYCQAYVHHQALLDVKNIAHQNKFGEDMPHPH
Method: as §1

T1 sequence (Q13547 whole entry): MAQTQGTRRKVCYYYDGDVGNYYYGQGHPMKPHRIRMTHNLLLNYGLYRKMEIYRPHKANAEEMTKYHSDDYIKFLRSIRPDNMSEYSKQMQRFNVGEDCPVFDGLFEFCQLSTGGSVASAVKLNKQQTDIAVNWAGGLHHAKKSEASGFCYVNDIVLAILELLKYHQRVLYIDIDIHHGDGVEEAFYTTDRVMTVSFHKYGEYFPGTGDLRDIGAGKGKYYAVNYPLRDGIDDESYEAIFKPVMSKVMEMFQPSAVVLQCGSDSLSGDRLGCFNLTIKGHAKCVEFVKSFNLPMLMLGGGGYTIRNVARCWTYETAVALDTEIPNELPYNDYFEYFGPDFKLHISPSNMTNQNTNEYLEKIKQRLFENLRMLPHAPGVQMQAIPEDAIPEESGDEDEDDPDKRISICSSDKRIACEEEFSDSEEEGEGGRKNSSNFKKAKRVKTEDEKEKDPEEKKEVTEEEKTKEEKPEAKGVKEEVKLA

Row | Compound | IC50 [1] | Selectivity for HDAC6, HD1/HD6 [2] | IC50 [2]
1 | CC(C)N1CCN(CC2CCc3c(c4cc(F)ccc4n3Cc3ccc(C(=O)NO)cc3)C2=O)CC1 (stereo not drawn) [Compound 188, 4-((6-fluoro-3-((4-isopropylpiperazin-1-yl)methyl)-4-oxo-1,2,3,4-tetrahydrocarbazol-9-yl)methyl)-N-hydroxybenzamide] | 2260 nM | 49.9 | 45.3 nM
2 | CC1(C)CC(=O)c2c(n(Cc3ccc(C(=O)NO)cc3)c3ccc(F)c(F)c23)C1 [Compound 73, 4-((5,6-difluoro-2,2-dimethyl-4-oxo-1,2,3,4-tetrahydrocarbazol-9-yl)methyl)-N-hydroxybenzamide] | 3910 nM | 52.1 | 75.1 nM
3 | O=C(NO)c1ccc(Cn2c3c(c4cc(F)ccc42)C(=O)CCC3)cc1 [Compound 157, 4-((3-fluoro-5-oxo-5,6,7,8-tetrahydrocarbazol-9-yl)methyl)-N-hydroxybenzamide] | 3610 nM | 326.2 | 11.1 nM
4 | Cc1c2c(n(CCCCCC(=O)NO)c1C)CC(C)(C)CC2=O [Compound 350, N-hydroxy-6-(2,3,6,6-tetramethyl-4-oxo-4,5,6,7-tetrahydro-1H-indol-1-yl)hexanamide] | 1000 nM | 9.8 | 102 nM
5 | Cc1nccn1CC1CCc2c(c3cc(F)ccc3n2Cc2ccc(C(=O)NO)cc2)C1=O (stereo not drawn) [Compound 158, 4-((6-fluoro-3-((2-methyl-1H-imidazol-1-yl)methyl)-4-oxo-1,2,3,4-tetrahydrocarbazol-9-yl)methyl)-N-hydroxybenzamide] | 5140 nM | 602.7 | 8.52 nM
6 | CC1(C)CC(=O)c2c(n(CCCCCC(=O)NO)c3cc(Br)ccc23)C1 [Compound 41, 6-(7-bromo-2,2-dimethyl-4-oxo-1,2,3,4-tetrahydrocarbazol-9-yl)-N-hydroxyhexanamide] | 98.8 nM | 50.7 | 1.95 nM
7 | CC1(C)CC(=O)c2c(n(Cc3ccc(C(=O)NO)cc3)c3cc(Br)ccc23)C1 [Compound 54, 4-((7-bromo-2,2-dimethyl-4-oxo-1,2,3,4-tetrahydrocarbazol-9-yl)methyl)-N-hydroxybenzamide] | 1470 nM | 24.7 | 59.5 nM
8 | CC1(C)CC(=O)c2c(n(CCCCCCC(=O)NO)c3c(Cl)cc(Cl)cc23)C1 [Compound 51, 7-(1,3-dichloro-7,7-dimethyl-5-oxo-5,6,7,8-tetrahydrocarbazol-9-yl)-N-hydroxyheptanamide] | 1330 nM | 12.5 | 106 nM
9 | CC1(C)CC(=O)C2c3c(F)cccc3N(CCCCCC(=O)NO)C2C1 (stereo not drawn) [Compound 60, 6-(5-fluoro-2,2-dimethyl-4-oxo-2,3,4,4a-tetrahydro-1H-carbazol-9(9aH)-yl)-N-hydroxyhexanamide] | 9180 nM | 127.4 | 72 nM
10 | CN1CCCN(CCN2CCc3c(c4cc(F)ccc4n3Cc3ccc(C(=O)NO)cc3)C2=O)CC1 [Compound 291, 4-((8-fluoro-2-(2-(4-methyl-1,4-diazepan-1-yl)ethyl)-1-oxo-1,2,3,4-tetrahydropyrido[4,3-b]indol-5-yl)methyl)-N-hydroxybenzamide] | 7920 nM | 426.3 | 18.6 nM
11 | Cc1cn(Cc2ccc(C(=O)NO)cc2)c2c1C(=O)CC(C)(C)C2 [Compound 136, N-hydroxy-4-((3,6,6-trimethyl-4-oxo-4,5,6,7-tetrahydro-1H-indol-1-yl)methyl)benzamide] | 3260 nM | 380.3 | 8.58 nM
12 | Cc1nccn1CC1CCc2c(c3ccccc3n2CCCCCC(=O)NO)C1=O (stereo not drawn) [Compound 194, N-hydroxy-6-(3-((2-methyl-1H-imidazol-1-yl)methyl)-4-oxo-1,2,3,4-tetrahydrocarbazol-9-yl)hexanamide] | 3080 nM | 131.3 | 23.5 nM
13 | O=C(CCCCCCn1c2c(c3cc(F)ccc31)C(=O)C(CN1CCOCC1)CC2)NO (stereo not drawn) [Compound 344, 7-(6-fluoro-3-(morpholinomethyl)-4-oxo-1,2,3,4-tetrahydrocarbazol-9-yl)-N-hydroxyheptanamide] | 102 nM | 6.3 | 16.2 nM
14 | CC1(C)CC(=O)c2c(n(CCCCCCC(=O)NO)c3ccccc23)C1 [Compound 20, 7-(2,2-dimethyl-4-oxo-1,2,3,4-tetrahydrocarbazol-9-yl)-N-hydroxyheptanamide] | 125 nM | 16.8 | 7.44 nM
15 | O=C(NO)c1ccc(Cn2c3ccc(F)cc3c3c(=O)[nH]ccc32)cc1 [Compound 305, 4-((8-fluoro-1-oxo-1,2-dihydropyrido[4,3-b]indol-5-yl)methyl)-N-hydroxybenzamide] | 2450 nM | 980.4 | 2.5 nM
16 | O=C(CCCCCn1c2c(c3cc(F)ccc31)C(=O)C(CN1CCN(c3ccc(F)cc3)CC1)CC2)NO (stereo not drawn) [Compound 322, 6-(6-fluoro-3-((4-(4-fluorophenyl)piperazin-1-yl)methyl)-4-oxo-1,2,3,4-tetrahydrocarbazol-9-yl)-N-hydroxyhexanamide] | 7440 nM | 40.8 | 182 nM
17 | O=C(NO)c1ccc(Cn2c3c(c4cc(F)ccc42)C(=O)N(CCN2CCC(CO)CC2)CC3)cc1 [Compound 286, 4-((8-fluoro-2-(2-(4-(hydroxymethyl)piperidin-1-yl)ethyl)-1-oxo-1,2,3,4-tetrahydropyrido[4,3-b]indol-5-yl)methyl)-N-hydroxybenzamide] | 10600 nM | 607 | 17.4 nM
18 | O=C(NO)c1ccc(Cn2c3c(c4cc(F)ccc42)C(=O)C(CN2CC[C@@H](F)C2)CC3)cc1 (stereo partly drawn) [Compound 283, 4-((6-fluoro-3-(((R)-3-fluoropyrrolidin-1-yl)methyl)-4-oxo-1,2,3,4-tetrahydrocarbazol-9-yl)methyl)-N-hydroxybenzamide] | 11800 nM | 1420.6 | 8.29 nM
19 | O=C(NO)c1ccc(Cn2c3c(c4cc(F)ccc42)C(=O)N(CCN2CCOCC2)CC3)cc1 [Compound 266] | 2910 nM | 2851 | 1.02 nM
20 | Cc1nn(Cc2ccc(C(=O)NO)cc2)c2c1C(=O)CC(C)(C)C2 [Compound 101, N-hydroxy-4-((3,6,6-trimethyl-4-oxo-4,5,6,7-tetrahydroindazol-1-yl)methyl)benzamide] | 1650 nM | 135.1 | 12.2 nM
21 | O=C(NO)c1ccc(Cn2c3c(c4ccccc42)C(=O)C(CN2CCN(c4ccc(F)cc4)CC2)CC3)cc1 (stereo not drawn) [Compound 127, 4-((3-((4-(4-fluorophenyl)piperazin-1-yl)methyl)-4-oxo-1,2,3,4-tetrahydrocarbazol-9-yl)methyl)-N-hydroxybenzamide] | 5300 nM | 622.7 | 8.51 nM
22 | Cc1nccn1CC1CCc2c(c3ccccc3n2Cc2ccc(C(=O)NO)cc2)C1=O (stereo not drawn) [Compound 85, N-hydroxy-4-((3-((2-methyl-1H-imidazole-1-yl)methyl)-4-oxo-1,2,3,4-tetrahydrocarbazol-9-yl)methyl)benzamide] | 2550 nM | 225 | 11.3 nM
23 | O=C(CCCCCn1c2c(c3ccccc31)C(=O)C(CN1CCC(F)(F)C1)CC2)NO (stereo not drawn) [Compound 204, 6-(3-((3,3-difluoropyrrolidin-1-yl)methyl)-4-oxo-1,2,3,4-tetrahydrocarbazol-9-yl)-N-hydroxyhexanamide] | 1950 nM | 40 | 48.7 nM

— patent publication US20140315889A1, “HYDROXAMATE DERIVATIVES FOR HDAC INHIBITOR, AND THE PHARMACEUTICAL COMPOSITION COMPRISING THEREOF” (CHONG KUN DANG PHARMACEUTICAL CORP., priority 2011, published 2014)
